In US10231992B2, “Antioxidant composition” (priority 2010, dated 2019):

Experiments:
[1] = system: reactive oxygen metabolites (ROMs) in human fibroblasts; assay: Intracellular ROM quantification with 2',7'-dichlorofluorescein diacetate probe in oxidized fibroblasts; format: cell-based; conditions: 1 mM H2O2; for F.U. (fluorescence units) / % decrease of ROS: 1% LBG, 5 mM NAC, 5 μM Turmeric; for F.U. (fluorescence units): fluorescence at 538 nm, 20 minutes after the start of the oxidation; for % decrease of ROS: with respect to the oxidized control
Experimental: To quantify the ROM-decreasing or antioxidant capacity of LBG, NAC and turmeric, the production of the ROMs generated upon oxidizing a culture of fibroblasts with a high concentration of hydrogen peroxide was measured.
The intracellular ROMs were quantified by means of the labeling thereof with the fluorescent probe 2′,7′-dichlorofluorescein diacetate (Molecular Probes D399). This probe is capable of emitting fluorescence at 538 nm when it is oxidized with reactive oxygen metabolites. The cell oxidation was carried out with 1 mM hydrogen peroxide.
The day before the assay, the fibroblasts were seeded in a 96-well plate at a density of 11500 cells per well. All the assays were performed in triplicate.
The treatments were prepared on the day of the experiment and the hydrogen peroxide was added just before the assay.
A solution of locust bean gum of 1% in distilled water was prepared and heated above 100° C. until completing dissolution of the gum.
The solution was then centrifuged for 20 minutes at 4000 rpm to remove the impurities from the mixture. The solution of the locust bean gum was lyophilized. The lyophilisate was dissolved in cell growth medium (DMEM+10% FBS) at a concentration of 1%.
Before adding the treatments and the hydrogen peroxide, the cells were labeled with the fluorescent probe at a concentration of 50 μM for 30 minutes in darkness.
The NAC and Turmeric treatments and the hydrogen peroxide were prepared just before starting the assay. To prepare the turmeric stock, it is necessary to know the purity of the Turmeric batch available and readjust the calculation to add the necessary concentration.
After labeling the cells, the antioxidant treatments and the hydrogen peroxide were added.
The fluorescence emitted at 538 nm by the probe was collected 20 minutes after the start of the oxidation.
However, in this case the decrease in intracellular ROM levels was taken as a reference with respect to the oxidized control.

human fibroblasts = assay: MTT cytotoxicity and proliferation assay, limit concentrations of NAC and turmeric; format: cell-based
Experimental: The proliferation assay was carried out using the MTT colorimetric assay (Roche 11465007001). MTT is a yellow tetrazolium salt which forms formazan crystals in active cells. The formazan crystals are solubilized and the resulting color is quantified by means of spectrophotometry at 550 nm. […] The cells were maintained at 37° C. in an incubation stove. The following day, the treatments of NAC and Turmeric were added to the cell culture using a volume of 200 μL per well. The cell culture was left to incubate for 24, 48 and 72 hours. After each incubation time, 20 μL of MTT (a final concentration of 0.5 mg/mL) were added to each well. The plate was maintained for 4 hours in the incubation stove in order to allow the formation of formazan crystals. Subsequently, 100 μL of solubilizer was added to each well and the plate was left in the incubation stove until the following day.

Row | Compound | intracellular ROM levels [1] | F.U. (fluorescence units) [1] | % decrease of ROS [1] [%] | IC50 (human fibroblasts; Homo sapiens, Fibroblast, 72 h, read-out: IC50 (concentration causing a 50% cell decrease with respect to the control)) [µM] | toxicity (human fibroblasts; concentration of 10 μM) | toxicity (human fibroblasts; concentrations of 1 and 5 μM) | toxicity (human fibroblasts; concentrations of 20 and 50 μM) | maximum limit of use in the mixture (human fibroblasts; toxicity limit from MTT assay) [µM] | IC50 (concentration causing a 50% cell decrease with respect to the control) (human fibroblasts; NAC studied from 0.5 mM to 20 mM, 72 hours) | proliferative rate in the fibroblasts (human fibroblasts; concentrations of 1 and 5 mM) | cell proliferation with respect to the control (human fibroblasts; concentrations of 10 and 20 mM) | maximum limit of concentration (human fibroblasts; toxicity limit from MTT assay) [mM]
1 | COc1cc(/C=C/C(=O)/C=C(O)/C=C/c2ccc(O)c(OC)c2)ccc1O [Turmeric, curcumin] | significant decrease of the intracellular ROM levels | 2.31 | 81 | 7.5 | exceeds the limit at 72 hours | no toxic effects were observed | toxicity from the first 24 hours, exceeding the IC50 limit | 7.5 | – | – | – | –
2 | CC(=O)N[C@@H](CS)C(=O)O [NAC, N-acetyl cysteine, reference compound] | significant decrease of the intracellular ROM levels | 1.82 | 85 | – | – | – | – | – | none of the concentrations studied reached IC50 | improvement of the proliferative rate | progressively reduced cell proliferation | 10
